Data on 25 compounds can be found in patent US8067447B2, “Modulators of glucocorticoid receptor, AP-1, and/or NF-κB activity and use thereof” (Bristol-Myers Squibb Company, priority 2006, dated 2011).

Assay [1] concerns AP-1 induced transcriptional activity. In words: Cellular Transrepressional Assay (AP-1 luciferase reporter in A549 cells, PMA-activated). Particulars: A549 cells with 7x AP-1 luciferase reporter, 10 ng/ml PMA, read-out: AP-1 (EC50, nM) (Cellular Transrepression Assay). In kind it is cell-based. The gist of the method:
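Test molecules spanning 0.1 nM to 40 μM were co-incubated 7 h with 10 ng/ml PMA in A549 cells stably carrying a 7× AP-1-driven luciferase plasmid. Repression, as % reduction of PMA-alone luminescence measured 10 min after reagent addition, was curve-fitted to give EC50s.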
Background: In a reporter assay the amount or activity of a reporter protein is the signal.

The target of assay [2] is T1, human full-length glucocorticoid receptor (Homo sapiens, UniProt P04150).
T1 construct: a cell lysate containing recombinantly expressed human full-length glucocorticoid receptor; purchased PanVera Co., Madison, Wis; P2816
T1 sequence (P04150 1-777): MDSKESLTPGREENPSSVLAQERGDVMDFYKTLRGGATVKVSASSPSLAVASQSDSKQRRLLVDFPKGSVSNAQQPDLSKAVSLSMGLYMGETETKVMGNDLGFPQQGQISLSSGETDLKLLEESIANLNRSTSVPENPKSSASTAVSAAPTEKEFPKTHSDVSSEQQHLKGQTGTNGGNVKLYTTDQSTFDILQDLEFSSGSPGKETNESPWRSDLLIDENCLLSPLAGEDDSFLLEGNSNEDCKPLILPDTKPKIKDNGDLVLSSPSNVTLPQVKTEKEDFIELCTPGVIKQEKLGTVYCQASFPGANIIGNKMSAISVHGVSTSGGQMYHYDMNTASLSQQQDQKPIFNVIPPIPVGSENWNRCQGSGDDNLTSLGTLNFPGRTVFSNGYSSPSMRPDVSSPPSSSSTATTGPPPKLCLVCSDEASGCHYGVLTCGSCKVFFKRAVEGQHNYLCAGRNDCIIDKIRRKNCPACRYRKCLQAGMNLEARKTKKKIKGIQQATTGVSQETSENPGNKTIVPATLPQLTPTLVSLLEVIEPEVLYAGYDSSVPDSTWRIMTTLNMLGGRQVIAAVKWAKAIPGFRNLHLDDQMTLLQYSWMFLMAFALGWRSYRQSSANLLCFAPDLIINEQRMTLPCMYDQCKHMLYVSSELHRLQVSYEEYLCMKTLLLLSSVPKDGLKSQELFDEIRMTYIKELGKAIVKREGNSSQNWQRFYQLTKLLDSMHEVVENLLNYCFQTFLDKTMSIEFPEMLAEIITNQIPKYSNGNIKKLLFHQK
The experiment in a line: Glucocorticoid Receptor Binding Assay (II), fluorescence polarization competitor kit (Fluormone GS1). Particulars: cell lysate with recombinant human full-length GR, 1 nM Fluormone GS1, FP. As for the experimental part:
In order to measure the binding of compounds on the glucocorticoid receptor a commercially available kit was used (Glucocorticoid receptor competitor assay kit, PanVera Co., Madison, Wis., P2816). Briefly, a cell lysate containing recombinantly expressed human full-length glucocorticoid receptor was mixed with a fluorescently labeled glucocorticoid (1 nM Fluormone GS1) in the presence or absence of test compound. After one hour at room temperature, the fluorescence polarization (FP) of the samples were measured.
(Fluorescence polarisation rises when a labelled molecule tumbles more slowly, as on binding a larger partner.)

Each structure is given as a SMILES string. Like-named read-outs stand apart in the source and are kept apart here.

For `CCC(C(=O)Nc1nncs1)C(c1ccccc1)c1ccc2c(cnn2-c2ccc(F)cc2)c1` (centres unmarked) [Example 142, 2-((1-(4-Fluorophenyl)-1H-indazol-5-yl)(phenyl)methyl)-N-(1,3,4-thiadiazol-2-yl)butanamide], the EC50 (in general, the concentration at which the effect is half-maximal) in assay [1] (Homo sapiens, A549, 7 h) was determined as 0.55 nM. Besides, the Ki (commonly a measure of affinity in units of concentration, obtained from inhibition or displacement) in assay [2] came out at 1.1 nM.
Regarding `CC(C)(C(=O)Nc1nncs1)[C@@H](c1ccccc1)c1ccc2c(cnn2-c2ccc(F)cc2N)c1` [Example 159, (3S)-3-(1-(2-Amino-4-fluorophenyl)-1H-indazol-5-yl)-2,2-dimethyl-3-phenyl-N-(1,3,4-thiadiazol-2-yl)propanamide], the EC50 in assay [1] (Homo sapiens, A549, 7 h) worked out at 73 nM. Also, the Ki in assay [2] was determined as 0.35 nM.
Take `O=C(Nc1nncs1)C(Cc1ccccc1)C(c1ccccc1)c1ccc2c(cnn2-c2ccc(F)cc2)c1` (centres unmarked) [Example 146, 2-benzyl-3-(1-(4-fluorophenyl)-1H-indazol-5-yl)-3-phenyl-N-(1,3,4-thiadiazol-2-yl)propanamide]: the EC50 in assay [1] (Homo sapiens, A549, 7 h) came out at 2 nM. The Ki in assay [2] is 1.5 nM.
`CCC(CC)(C(=O)Nc1nncs1)C(c1ccccc1)c1ccc2c(cnn2-c2ccc(F)cc2)c1` (centres unmarked) [Example 149, 2-ethyl-2-((1-(4-fluorophenyl)-1H-indazol-5-yl)(phenyl)methyl)-N-(1,3,4-thiadiazol-2-yl)butanamide]: in assay [1] (Homo sapiens, A549, 7 h), the EC50 turned out to be 130 nM. For the same compound, the Ki in assay [2] is 4.7 nM.
As for `CC(C)(C(=O)NC1CCCC1)C(Cc1ccccc1)c1ccc2c(cnn2-c2ccc(F)cc2)c1` (single isomer, unassigned) [Example 130, N-cyclopentyl-3-(1-(4-fluorophenyl)-1H-indazol-5-yl)-2,2-dimethyl-4-phenylbutanamide], in assay [1] (Homo sapiens, A549, 7 h), the EC50 is more than 10000 nM. Moreover, the Ki in assay [2] was found to be 6.1 nM.
`O=C(Nc1nncs1)C(c1ccccc1)C(c1ccccc1)c1ccc2c(cnn2-c2ccc(F)cc2)c1` (single isomer, unassigned) [Example 145-isomerC, 3-(1-(4-fluorophenyl)-1H-indazol-5-yl)-2,3-diphenyl-N-(1,3,4-thiadiazol-2-yl)propanamide]: the EC50 in assay [1] (7 hours) turned out to be 5000 nM. Further, the Ki in assay [2] turned out to be 555 nM.
Take `CC(C)(C(=O)Nc1nccs1)C(Cc1ccccc1)c1ccc2c(cnn2-c2ccc(F)cc2)c1` (centres unmarked) [Example 138, 3-(1-(4-Fluorophenyl)-1H-indazol-5-yl)-2,2-dimethyl-4-phenyl-N-(thiazol-2-yl)butanamide]: the EC50 in assay [1] (Homo sapiens, A549, 7 h) worked out at 223 nM. The Ki in assay [2] came out at 1.9 nM.
On to `O=C(Nc1nncs1)C(C1CCCC1)C(c1ccccc1)c1ccc2c(cnn2-c2ccc(F)cc2)c1` (centres unmarked) [Example 147, 2-cyclopentyl-3-(1-(4-fluorophenyl)-1H-indazol-5-yl)-3-phenyl-N-(1,3,4-thiadiazol-2-yl)propanamide], for which the EC50 in assay [1] (Homo sapiens, A549, 7 h) came out at 2 nM. Besides, the Ki in assay [2] is 2.3 nM.
Take `CC(C)(C(=O)NC1CCNCC1)C(Cc1ccccc1)c1ccc2c(cnn2-c2ccc(F)cc2)c1` (centres unmarked) [Example 133, 3-(1-(4-fluorophenyl)-1H-indazol-5-yl)-2,2-dimethyl-4-phenyl-N-(piperidin-4-yl)butanamide]: the EC50 in assay [1] (Homo sapiens, A549, 7 h) is more than 10000 nM. Besides, in assay [2], the Ki turned out to be 153 nM.
As to `C/C=C/CC(c1ccc2c(cnn2-c2ccc(F)cc2)c1)C(C)(C)C(=O)Nc1nncs1` (centres unmarked) [Example 55, (E)-3-(1-(4-fluorophenyl)-1H-indazol-5-yl)-2,2-dimethyl-N-(1,3,4-thiadiazol-2-yl)hept-5-enamide], the EC50 in assay [1] (Homo sapiens, A549, 7 h) stood at 2500 nM. Besides, in assay [2], the Ki was 1.3 nM.
Turning to `CC(C)(C(=O)Nc1nncs1)[C@@H](c1ccccc1)c1ccc2c(cnn2-c2ccc(F)cc2NC(N)=O)c1` [Example 161, (3S)-3-(1-(4-Fluoro-2-ureidophenyl)-1H-indazol-5-yl)-2,2-dimethyl-3-phenyl-N-(1,3,4-thiadiazol-2-yl)propanamide], in assay [1] (Homo sapiens, A549, 7 h), the EC50 was determined as 5000 nM. Besides, the Ki in assay [2] was 32 nM.
Regarding `CC(C)(C(=O)Nc1nncs1)[C@@H](c1ccccc1)c1ccc2c(cnn2-c2ccc(F)cc2C(N)=O)c1` [Example 156, 2-(5-((S)-3-(1,3,4-Thiadiazol-2-ylamino)-2,2-dimethyl-3-oxo-1-phenylpropyl)-1H-indazol-1-yl)-5-fluorobenzamide], the EC50 in assay [1] (Homo sapiens, A549, 7 h) came to 135 nM. In addition, the Ki in assay [2] is 22 nM.
Regarding `CC(C)(CO)CNC(=O)C(C)(C)C(Cc1ccccc1)c1ccc2c(cnn2-c2ccc(F)cc2)c1` (centres unmarked) [Example 134, 3-(1-(4-fluorophenyl)-1H-indazol-5-yl)-N-(3-hydroxy-2,2-dimethylpropyl)-2,2-dimethyl-4-phenylbutanamide], the EC50 in assay [1] (Homo sapiens, A549, 7 h) is more than 10000 nM. For the same compound, the Ki in assay [2] stood at 6 nM.
For `CC(C)(C(=O)NC1CCCC1O)C(Cc1ccccc1)c1ccc2c(cnn2-c2ccc(F)cc2)c1` (single isomer, unassigned) [Example 124-isomerD], the EC50 in assay [1] (7 hours) amounted to 40 nM. Further, the Ki in assay [2] came to 0.64 nM.
As to `COc1cccc(-n2ncc3cc(C(c4ccccc4)C(C)(C)C(=O)Nc4nncs4)ccc32)c1` (centres unmarked) [Example 94, 3-(1-(3-methoxyphenyl)-1H-indazol-5-yl)-2,2-dimethyl-3-phenyl-N-(1,3,4-thiadiazol-2-yl)propanamide], in assay [1] (Homo sapiens, A549, 7 h), the EC50 amounted to 1200 nM. Also, the inhibitory constant (Ki) in assay [2] stood at 36 nM.
Turning to `Cn1cnc(NC(=O)CC(c2ccccc2)c2ccc3c(cnn3-c3ccc(F)cc3)c2)n1` (centres unmarked) [Example 137, 3-(1-(4-Fluorophenyl)-1H-indazol-5-yl)-N-(1-methyl-1H-1,2,4-triazol-3-yl)-3-phenylpropanamide], the EC50 in assay [1] (Homo sapiens, A549, 7 h) was 833 nM. Further, the Ki in assay [2] worked out at 11 nM.
With `CC(C)/C=C(\c1ccc2c(cnn2-c2ccc(F)cc2)c1)C(C)(C)C(=O)Nc1nncs1` [Example 139, (E)-3-(1-(4-Fluorophenyl)-1H-indazol-5-yl)-2,2,5-trimethyl-N-(1,3,4-thiadiazol-2-yl)hex-3-enamide], the EC50 in assay [1] (Homo sapiens, A549, 7 h) turned out to be 2500 nM. For the same compound, the Ki in assay [2] is 4.7 nM.
Take `CC(C)(C(=O)Nc1nncs1)C(c1ccccc1)c1ccc2c(cnn2-c2ccc(C(=O)O)cc2)c1` (centres unmarked) [Example 89, 4-(5-(3-(1,3,4-thiadiazol-2-ylamino)-2,2-dimethyl-3-oxo-1-phenylpropyl)-1H-indazol-1-yl)benzoic acid]: the EC50 in assay [1] (Homo sapiens, A549, 7 h) was more than 10000 nM. Further, the Ki in assay [2] stood at 27 nM.
For the compound `CC(C)(C(=O)NC1CCCC1)C(Cc1ccccc1)c1ccc2c(cnn2-c2ccc(F)cc2)c1` (single isomer, unassigned) [Example 131, N-cyclopentyl-3-(1-(4-fluorophenyl)-1H-indazol-5-yl)-2,2-dimethyl-4-phenylbutanamide], in assay [1] (7 hours), the EC50 is more than 10000 nM. The Ki in assay [2] was 3 nM.
In the case of `Cc1ccc(C(c2ccc3c(cnn3-c3ccc(F)cc3)c2)C(C)(C)C(=O)Nc2nccs2)cc1` (centres unmarked) [Example 42, 3-(1-(4-fluorophenyl)-1H-indazol-5-yl)-2,2-dimethyl-N-(thiazol-2-yl)-3-p-tolylpropanamide], the EC50 in assay [1] (Homo sapiens, A549, 7 h) came out at 3.9 nM. Moreover, the Ki in assay [2] turned out to be 1.9 nM.
Consider `CC(C)(C(=O)Nc1nccs1)C(c1cccc(F)c1)c1ccc2c(cnn2-c2ccc(F)cc2)c1` (centres unmarked) [Example 43], for which the EC50 in assay [1] (Homo sapiens, A549, 7 h) amounted to 2.4 nM. Further, the Ki in assay [2] worked out at 2.9 nM.
In the case of `O=C(Nc1nncs1)C(c1ccccc1)C(c1ccccc1)c1ccc2[nH]ncc2c1` (single isomer, unassigned) [152-diast B, 3-(1H-Indazol-5-yl)-2,3-diphenyl-N-(1,3,4-thiadiazol-2-yl)propanamide], the EC50 in assay [1] (7 hours) worked out at 5000 nM. Besides, in assay [2], the Ki was 1150 nM.
With `Cc1ccccc1C(c1ccc2c(cnn2-c2ccc(F)cc2)c1)C(C)(C)C(=O)Nc1nccs1` (centres unmarked) [Example 40, 3-(1-(4-fluorophenyl)-1H-indazol-5-yl)-2,2-dimethyl-N-(thiazol-2-yl)-3-o-tolylpropanamide], the EC50 in assay [1] (Homo sapiens, A549, 7 h) was determined as 2.1 nM. Also, the Ki in assay [2] turned out to be 1.6 nM.
Turning to `O=C(Nc1nncs1)C1(C(c2ccccc2)c2ccc3c(cnn3-c3ccc(F)cc3)c2)CCCCC1` (centres unmarked) [Example 150, 1-((1-(4-fluorophenyl)-1H-indazol-5-yl)(phenyl)methyl)-N-(1,3,4-thiadiazol-2-yl)cyclohexanecarboxamide], the EC50 in assay [1] (Homo sapiens, A549, 7 h) amounted to 13 nM. The Ki in assay [2] was 4 nM.
As to `CC(C)(C(=O)Nc1nccs1)C(C)(C)c1ccc2c(cnn2-c2ccc(F)cc2)c1` [Example 113, 3-(1-(4-Fluorophenyl)-1H-indazol-5-yl)-2,2,3-trimethyl-N-(thiazol-2-yl)butanamide], in assay [1] (Homo sapiens, A549, 7 h), the EC50 worked out at 107 nM. For the same compound, in assay [2], the Ki is 5.1 nM.
